System: MV-4-11 cells
Experiment: Gene expression microarray analysis (Affymetrix PrimeView) and GSEA
Assay type: cell-based, human
Set-up: RFU PODN (11730768_x_at) / Fold change /veh PODN (11730768_x_at) / RFU LINC00158 (11744669_a_at) / Fold change /veh LINC00158 (11744669_a_at) / RFU DUSP10 (11751237_a_at) / Fold change /veh DUSP10 (11751237_a_at) / RFU ID3 (11757404_x_at) / Fold change /veh ID3 (11757404_x_at) / RFU PLEKHG5 (11737974_s_at) / Fold change /veh PLEKHG5 (11737974_s_at) / RFU LRRC4B (11730491_at) / Fold change /veh LRRC4B (11730491_at) / RFU GIMAP4 (11747438_a_at) / Fold change /veh GIMAP4 (11747438_a_at) / RFU KRT8 (11758183_x_at) / Fold change /veh KRT8 (11758183_x_at) / RFU CNN1 (11734310_a_at) / Fold change /veh CNN1 (11734310_a_at) / RFU VPS37D (11726825_at) / Fold change /veh VPS37D (11726825_at) / RFU C10orf10 (11716522_x_at) / Fold change /veh C10orf10 (11716522_x_at) / RFU KIR2DL2 /// KIR2DL4 /// KIR2DL5A /// KIR2DL5B /// KIR2DS1 /// KIR2DS2 /// KIR2DS3 /// KIR2DS4 /// KIR3DL3 /// KIR3DL3 /// KIR3DS1 (11738374_at) / Fold change /veh KIR2DL2 /// KIR2DL4 /// KIR2DL5A /// KIR2DL5B /// KIR2DS1 /// KIR2DS2 /// KIR2DS3 /// KIR2DS4 /// KIR3DL3 /// KIR3DL3 /// KIR3DS1 (11738374_at) / RFU C1QL1 (11718748_at) / Fold change /veh C1QL1 (11718748_at) / RFU TMPRSS4 (11747572_a_at) / Fold change /veh TMPRSS4 (11747572_a_at) / RFU HAMP (11756126_x_at) / Fold change /veh HAMP (11756126_x_at) / RFU RNFT2 (11725882_a_at) / Fold change /veh RNFT2 (11725882_a_at) / RFU NR4A2 (11747474_a_at) / Fold change /veh NR4A2 (11747474_a_at) / RFU ABCC12 (11746883_a_at) / Fold change /veh ABCC12 (11746883_a_at) / RFU TMEM136 (11760407_x_at) / Fold change /veh TMEM136 (11760407_x_at) / RFU CLDN22 /// WWC2 (11732394_at) / Fold change /veh CLDN22 /// WWC2 (11732394_at) / RFU HLA-DPB1 (11760878_x_at) / Fold change /veh HLA-DPB1 (11760878_x_at) / RFU SPINT1 (11716480_a_at) / Fold change /veh SPINT1 (11716480_a_at) / RFU GAP43 (11754022_s_at) / Fold change /veh GAP43 (11754022_s_at) / RFU A4GNT (11735810_at) / Fold change /veh A4GNT (11735810_at) / RFU PRB3 (11715151_x_at) / Fold change /veh PRB3 (11715151_x_at) / RFU TUBB4B (11761932_at) / Fold change /veh TUBB4B (11761932_at) / RFU CAPN14 (11732068_a_at) / Fold change /veh CAPN14 (11732068_a_at) / RFU TMCC2 (11721928_a_at) / Fold change /veh TMCC2 (11721928_a_at) / RFU IRGQ (11745062_a_at) / Fold change /veh IRGQ (11745062_a_at) / RFU FAM174B (11720279_a_at) / Fold change /veh FAM174B (11720279_a_at) / RFU TMPRSS4 (11748680_a_at) / Fold change /veh TMPRSS4 (11748680_a_at) / RFU FAM212B (11763350_a_at) / Fold change /veh FAM212B (11763350_a_at) / RFU PLEKHG5 (11743358_a_at) / Fold change /veh PLEKHG5 (11743358_a_at) / RFU ZSCAN30 (11745921_a_at) / Fold change /veh ZSCAN30 (11745921_a_at) / RFU CMKLR1 (11741424_a_at) / Fold change /veh CMKLR1 (11741424_a_at) / RFU LOC101060620 /// MAPK8IP1 (11723275_at) / Fold change /veh LOC101060620 /// MAPK8IP1 (11723275_at) / RFU SPTSSB (11747773_x_at) / Fold change /veh SPTSSB (11747773_x_at) / RFU PRSS12 (11739890_at) / Fold change /veh PRSS12 (11739890_at) / RFU BIN1 (11741810_x_at) / Fold change /veh BIN1 (11741810_x_at) / RFU WNT11 (11732464_a_at) / Fold change /veh WNT11 (11732464_a_at) / RFU C10orf10 (11716521_a_at) / Fold change /veh C10orf10 (11716521_a_at) / RFU C5orf56 (11738089_at) / Fold change /veh C5orf56 (11738089_at) / RFU CYB561 (11721691_x_at) / Fold change /veh CYB561 (11721691_x_at) / RFU ANKRD19P (11752326_a_at) / Fold change /veh ANKRD19P (11752326_a_at) / RFU OR2T12 /// OR2T33 /// OR2T8 (11738714_s_at) / Fold change /veh OR2T12 /// OR2T33 /// OR2T8 (11738714_s_at) / RFU VCAN (11748164_a_at) / Fold change /veh VCAN (11748164_a_at) / RFU JSRP1 (11732532_at) / Fold change /veh JSRP1 (11732532_at) / RFU KRTAP10-11 (11738290_x_at) / Fold change /veh KRTAP10-11 (11738290_x_at) / RFU MYO3A (11730013_a_at) / Fold change /veh MYO3A (11730013_a_at) / RFU EBF3 (11725865_a_at) / Fold change /veh EBF3 (11725865_a_at) / RFU CAMK2N1 (11719241_x_at) / Fold change /veh CAMK2N1 (11719241_x_at) / RFU C5orf56 (11738088_a_at) / Fold change /veh C5orf56 (11738088_a_at) / RFU OLFML3 (11715873_a_at) / Fold change /veh OLFML3 (11715873_a_at) / RFU LOC100653217 /// NTM (11731650_a_at) / Fold change /veh LOC100653217 /// NTM (11731650_a_at) / RFU MAPK11 (11762145_a_at) / Fold change /veh MAPK11 (11762145_a_at) / RFU FIZ1 (11724087_x_at) / Fold change /veh FIZ1 (11724087_x_at) / RFU OASL (11726364_x_at) / Fold change /veh OASL (11726364_x_at) / RFU SOX15 (11748057_x_at) / Fold change /veh SOX15 (11748057_x_at) / RFU CD79A (11719716_a_at) / Fold change /veh CD79A (11719716_a_at) / RFU HIST1H1D (11736915_at) / Fold change /veh HIST1H1D (11736915_at) / RFU CASKIN2 (11723855_a_at) / Fold change /veh CASKIN2 (11723855_a_at) / RFU LOC730098 (11760151_x_at) / Fold change /veh LOC730098 (11760151_x_at) / RFU OR4N2 (11742367_at) / Fold change /veh OR4N2 (11742367_at) / RFU PRRT2 (11749266_a_at) / Fold change /veh PRRT2 (11749266_a_at) / RFU SNX32 (11753110_a_at) / Fold change /veh SNX32 (11753110_a_at) / RFU CDHR5 (11726645_a_at) / Fold change /veh CDHR5 (11726645_a_at) / RFU RCAN1 (11760418_a_at) / Fold change /veh RCAN1 (11760418_a_at) / RFU FAM167A (11723789_a_at) / Fold change /veh FAM167A (11723789_a_at) / RFU FAM26E (11764081_at) / Fold change /veh FAM26E (11764081_at) / RFU ISYNA1 (11749810_s_at) / Fold change /veh ISYNA1 (11749810_s_at) / RFU ACY1 (11761880_at) / Fold change /veh ACY1 (11761880_at) / RFU 11764098_at / Fold change /veh 11764098_at / RFU SAMD14 (11745864_x_at) / Fold change /veh SAMD14 (11745864_x_at) / RFU NPB (11741838_a_at) / Fold change /veh NPB (11741838_a_at) / RFU TMPRSS6 (11731388_a_at) / Fold change /veh TMPRSS6 (11731388_a_at) / RFU KRTAP10-2 (11738614_at) / Fold change /veh KRTAP10-2 (11738614_at) / RFU ARHGAP8 /// PRR5-ARHGAP8 (11727945_x_at) / Fold change /veh ARHGAP8 /// PRR5-ARHGAP8 (11727945_x_at) / RFU KRTAP5-7 /// NADSYN1 (11734609_at) / Fold change /veh KRTAP5-7 /// NADSYN1 (11734609_at) / RFU RASL12 (11751679_a_at) / Fold change /veh RASL12 (11751679_a_at) / RFU CDKN2B (11736163_a_at) / Fold change /veh CDKN2B (11736163_a_at) / RFU PRF1 (11729649_at) / Fold change /veh PRF1 (11729649_at) / RFU, ZNF638 /// ZNF638-IT1 / Fold change vs veh, ZNF638 /// ZNF638-IT1 / RFU, PANK3 / Fold change vs veh, PANK3 / RFU, SH3YL1 / Fold change vs veh, SH3YL1 / RFU, ZEB2 / Fold change vs veh, ZEB2 / RFU, NRIP1 / Fold change vs veh, NRIP1 / RFU, PTTG1IP / Fold change vs veh, PTTG1IP / RFU, CAPN2 / Fold change vs veh, CAPN2 / RFU, MED14 / Fold change vs veh, MED14 / RFU, SNORA58 / Fold change vs veh, SNORA58 / RFU, C1orf63 / Fold change vs veh, C1orf63 / RFU, LRRFIP1 / Fold change vs veh, LRRFIP1 / RFU, NDUFAF7 / Fold change vs veh, NDUFAF7 / RFU, SLC12A2 / Fold change vs veh, SLC12A2 / RFU, IBTK / Fold change vs veh, IBTK / RFU, ESF1 / Fold change vs veh, ESF1 / Fold change vs veh, TMEM50B / RFU, TAOK1 / Fold change vs veh, TAOK1 / RFU, ACBD3 / Fold change vs veh, ACBD3 / RFU, TMA16 / Fold change vs veh, TMA16 / RFU, RWDD3 / Fold change vs veh, RWDD3 / RFU, BCAT1 / Fold change vs veh, BCAT1 / RFU, EDEM3 / Fold change vs veh, EDEM3 / RFU, TMEM33 / Fold change vs veh, TMEM33 / RFU, WDR75 / Fold change vs veh, WDR75 / RFU, AHCTF1 / Fold change vs veh, AHCTF1 / RFU, TFRC / Fold change vs veh, TFRC / RFU, ZDHHC17 / Fold change vs veh, ZDHHC17 / RFU, NOM1 / Fold change vs veh, NOM1 / RFU, ARL8B / Fold change vs veh, ARL8B / RFU, ZBTB11 / Fold change vs veh, ZBTB11 / RFU, TAMM41 / Fold change vs veh, TAMM41 / RFU, KIAA1704 /// LOC100996395 / Fold change vs veh, KIAA1704 /// LOC100996395 / RFU, ING1 / Fold change vs veh, ING1 / RFU, TRMT61B / Fold change vs veh, TRMT61B / RFU, FUBP3 / Fold change vs veh, FUBP3 / RFU, TP53 / Fold change vs veh, TP53 / RFU, TNKS2 / Fold change vs veh, TNKS2 / RFU, ZFP14 / Fold change vs veh, ZFP14 / RFU, ACTR2 / Fold change vs veh, ACTR2 / RFU, PPP3R1 / Fold change vs veh, PPP3R1 / RFU, PIK3R1 / Fold change vs veh, PIK3R1 / RFU, HNRNPA1 / Fold change vs veh, HNRNPA1 / RFU, RNF170 / Fold change vs veh, RNF170 / RFU, ZNF28 / Fold change vs veh, ZNF28 / RFU, RNGTT / Fold change vs veh, RNGTT / RFU, OGT / Fold change vs veh, OGT / RFU, BRD1 / Fold change vs veh, BRD1 / RFU, MARS / Fold change vs veh, MARS / RFU, ZNF655 / Fold change vs veh, ZNF655 / RFU, FAHD1 / Fold change vs veh, FAHD1 / RFU, BDP1 / Fold change vs veh, BDP1 / RFU, LRRCC1 / Fold change vs veh, LRRCC1 / RFU, ARID1A / Fold change vs veh, ARID1A / RFU, ZNF146 / Fold change vs veh, ZNF146 / RFU, ZNF330 / Fold change vs veh, ZNF330 / RFU, GPN3 / Fold change vs veh, GPN3 / RFU, C9orf123 / Fold change vs veh, C9orf123 / RFU, N4BP2L2 / Fold change vs veh, N4BP2L2 / RFU, ARFIP1 / Fold change vs veh, ARFIP1 / RFU, FAM179B / Fold change vs veh, FAM179B / RFU, BCL10 / Fold change vs veh, BCL10 / RFU, UHRF1BP1L / Fold change vs veh, UHRF1BP1L / RFU, BET1 / Fold change vs veh, BET1 / RFU, CNOT2 / Fold change vs veh, CNOT2 / RFU, ZNF268 / Fold change vs veh, ZNF268 / Fold change vs veh, ZNF507 / RFU, DGCR2 / Fold change vs veh, DGCR2 / RFU, WDSUB1 / Fold change vs veh, WDSUB1 / Fold change vs veh, HSP90B1 /// MIR3652 / RFU, ADSS / Fold change vs veh, ADSS / RFU, GK / Fold change vs veh, GK / RFU, ZNF148 / Fold change vs veh, ZNF148 / RFU, TAF9 / Fold change vs veh, TAF9 / RFU, SLC1A5 / Fold change vs veh, SLC1A5 / RFU, SLMO2 / Fold change vs veh, SLMO2 / RFU, ABCC4 / Fold change vs veh, ABCC4 / RFU, LOC101060439 /// RAP1B / Fold change vs veh, LOC101060439 /// RAP1B / RFU, RFX7 / Fold change vs veh, RFX7 / RFU, GTPBP10 / Fold change vs veh, GTPBP10 / RFU, CNEP1R1 / Fold change vs veh, CNEP1R1 / RFU, BIVM-ERCC5 /// ERCC5 / Fold change vs veh, BIVM-ERCC5 /// ERCC5 / RFU, ILF3 / Fold change vs veh, ILF3 / RFU 11762660_at / Fold change /veh 11762660_at / RFU VCAN (11757783_s_at) / Fold change /veh VCAN (11757783_s_at) / RFU DDX43 (11728927_at) / Fold change /veh DDX43 (11728927_at) / RFU KRT8 (11758188_x_at) / Fold change /veh KRT8 (11758188_x_at) / RFU NKD1 (11759106_at) / Fold change /veh NKD1 (11759106_at) / RFU SRD5A1 (11742802_a_at) / Fold change /veh SRD5A1 (11742802_a_at) / RFU TPSAB1 /// TPSB2 (11721975_s_at) / Fold change /veh TPSAB1 /// TPSB2 (11721975_s_at) / RFU GSTM3 (11746129_a_at) / Fold change /veh GSTM3 (11746129_a_at) / RFU IL23R (11737362_x_at) / Fold change /veh IL23R (11737362_x_at) / RFU TMEM51 (11727254_a_at) / Fold change /veh TMEM51 (11727254_a_at) / RFU PIWIL2 (11732686_x_at) / Fold change /veh PIWIL2 (11732686_x_at) / RFU ORM1 (11744905_x_at) / Fold change /veh ORM1 (11744905_x_at) / RFU CCDC152 (11743942_at) / Fold change /veh CCDC152 (11743942_at) / RFU ECM1 (11717891_a_at) / Fold change /veh ECM1 (11717891_a_at) / RFU IL23R (11748794_a_at) / Fold change /veh IL23R (11748794_a_at) / RFU TNFAIP8L3 (11732012_x_at) / Fold change /veh TNFAIP8L3 (11732012_x_at) / RFU MBOAT4 (11741988_at) / Fold change /veh MBOAT4 (11741988_at) / RFU 11764193_at / Fold change /veh 11764193_at / RFU TMEM53 (11763286_at) / Fold change /veh TMEM53 (11763286_at) / RFU MAGEB2 (11727129_at) / Fold change /veh MAGEB2 (11727129_at) / RFU TMEM200A (11744735_a_at) / Fold change /veh TMEM200A (11744735_a_at) / RFU CCDC152 (11751479_a_at) / Fold change /veh CCDC152 (11751479_a_at) / RFU FAM211A (11726209_a_at) / Fold change /veh FAM211A (11726209_a_at) / RFU RGS16 (11746705_a_at) / Fold change /veh RGS16 (11746705_a_at) / RFU VCAN (11755009_s_at) / Fold change /veh VCAN (11755009_s_at) / RFU RHOB (11743442_s_at) / Fold change /veh RHOB (11743442_s_at) / RFU RGS16 (11720943_a_at) / Fold change /veh RGS16 (11720943_a_at) / RFU RGS16 (11720944_at) / Fold change /veh RGS16 (11720944_at) / RFU, VPS4B / Fold change vs veh, VPS4B / RFU, CREB1 / Fold change vs veh, CREB1 / RFU, DNAJC13 / Fold change vs veh, DNAJC13 / RFU, GNAQ / Fold change vs veh, GNAQ / RFU, CDK5R1 / Fold change vs veh, CDK5R1 / RFU, ZRANB3 / Fold change vs veh, ZRANB3 / RFU, CUL4A / Fold change vs veh, CUL4A / RFU, CCNY / Fold change vs veh, CCNY / RFU, UFL1 / Fold change vs veh, UFL1 / RFU, COG3 / Fold change vs veh, COG3 / RFU, DIAPH2 / Fold change vs veh, DIAPH2 / RFU, SKA2 / Fold change vs veh, SKA2 / RFU, AFF3 / Fold change vs veh, AFF3 / RFU, LMF1 / Fold change vs veh, LMF1 / RFU, IPO11 / Fold change vs veh, IPO11 / RFU, DFFB / Fold change vs veh, DFFB / RFU, FOXP1 / Fold change vs veh, FOXP1 / RFU, CARD8 / Fold change vs veh, CARD8 / RFU, STRN3 / Fold change vs veh, STRN3 / RFU, ADK / Fold change vs veh, ADK / RFU, RASSF2 / Fold change vs veh, RASSF2 / RFU, WIPF1 / Fold change vs veh, WIPF1 / RFU, LARP1B / Fold change vs veh, LARP1B / RFU, RASA1 / Fold change vs veh, RASA1 / RFU, RB1 / Fold change vs veh, RB1 / RFU, PPFIA1 / Fold change vs veh, PPFIA1 / RFU, MAT2A / Fold change vs veh, MAT2A / RFU, CCT5 / Fold change vs veh, CCT5 / RFU, WDR92 / Fold change vs veh, WDR92 / RFU, CUX1 / Fold change vs veh, CUX1 / RFU, TTC7A / Fold change vs veh, TTC7A / RFU, TMEM135 / Fold change vs veh, TMEM135 / RFU, DEPTOR / Fold change vs veh, DEPTOR / RFU, CPM / Fold change vs veh, CPM / RFU, DNAJB6 / Fold change vs veh, DNAJB6 / RFU, CACNA2D3 / Fold change vs veh, CACNA2D3 / RFU, DTX4 / Fold change vs veh, DTX4 / RFU, TFCP2 / Fold change vs veh, TFCP2 / RFU, GMCL1 /// GMCL1P1 / Fold change vs veh, GMCL1 /// GMCL1P1 / RFU, AEBP2 / Fold change vs veh, AEBP2 / RFU, SNHG1 /// SNORD22 /// SNORD25 /// SNORD26 /// SNORD27 /// SNORD28 /// SNORD29 /// SNORD31 / Fold change vs veh, SNHG1 /// SNORD22 /// SNORD25 /// SNORD26 /// SNORD27 /// SNORD28 /// SNORD29 /// SNORD31 / Fold change (Aza/veh), C12orf56 (ProbeSet 11735607_a_at) / Fold change (ACY-1035/veh), C12orf56 (ProbeSet 11735607_a_at) / Fold change (Aza/veh), FGFR1OP (ProbeSet 11751329_s_at) / Fold change (ACY-1035/veh), FGFR1OP (ProbeSet 11751329_s_at) / Fold change (Aza/veh), VPS36 (ProbeSet 11739960_a_at) / Fold change (ACY-1035/veh), VPS36 (ProbeSet 11739960_a_at) / RFU SYPL1 (11715823_x_at) / Fold change /veh SYPL1 (11715823_x_at) / RFU IGFBP7 (11715501_s_at) / Fold change /veh IGFBP7 (11715501_s_at) / RFU REEP3 (11722064_at) / Fold change /veh REEP3 (11722064_at) / RFU IGLL1 (11728026_x_at) / Fold change /veh IGLL1 (11728026_x_at): dose or concentration left out as unconfirmed
Conditions: ProbeSet 11734782_x_at; LIST D

Question: With `Nc1ccc(-c2cccs2)cc1NC(=O)c1ccc2c(c1)cc(C1CC1)n2CCN1CCOCC1` [ACY-1035] as the compound, how does the “Fold change vs veh, WDR92” value read?
Answer: Its value is 0.89.

Reference: article PMC5218480 (PLoS ONE, 2017)
